What was measured:
[1] = biological target: T1, Transmembrane protease serine 6 (Homo sapiens) (UniProt Q8IU80); assay: Inhibition of human matriptase-2 transfected in HEK cells assessed as residual activity at 40 uM using Boc-Gln-Ala-Arg-AMC as substrate after 20 mins by fluorimetric analysis; type: cell-based; settings: HEK293
T1 sequence (whole entry): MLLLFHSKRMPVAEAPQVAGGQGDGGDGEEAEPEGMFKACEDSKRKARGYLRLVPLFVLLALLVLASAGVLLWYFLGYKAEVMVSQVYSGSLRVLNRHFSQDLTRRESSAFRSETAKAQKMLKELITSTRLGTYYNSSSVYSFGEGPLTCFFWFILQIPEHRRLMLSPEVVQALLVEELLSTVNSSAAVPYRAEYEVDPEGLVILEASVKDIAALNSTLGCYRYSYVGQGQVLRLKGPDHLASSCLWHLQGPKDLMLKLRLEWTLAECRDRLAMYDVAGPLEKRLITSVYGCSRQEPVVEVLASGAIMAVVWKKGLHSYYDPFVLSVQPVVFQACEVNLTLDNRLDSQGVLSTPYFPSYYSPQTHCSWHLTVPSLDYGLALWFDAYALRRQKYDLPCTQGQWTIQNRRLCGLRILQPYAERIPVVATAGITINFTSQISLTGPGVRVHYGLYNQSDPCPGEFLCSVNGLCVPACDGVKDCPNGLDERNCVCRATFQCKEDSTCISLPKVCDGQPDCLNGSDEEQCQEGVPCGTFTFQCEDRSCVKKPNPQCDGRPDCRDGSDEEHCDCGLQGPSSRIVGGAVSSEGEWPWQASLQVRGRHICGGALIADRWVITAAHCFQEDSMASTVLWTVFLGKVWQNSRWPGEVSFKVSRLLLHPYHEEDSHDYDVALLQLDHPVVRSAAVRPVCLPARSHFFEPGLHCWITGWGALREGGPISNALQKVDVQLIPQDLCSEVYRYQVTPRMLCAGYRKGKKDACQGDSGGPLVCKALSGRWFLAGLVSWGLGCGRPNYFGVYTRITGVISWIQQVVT

Coagulation factor X = Coagulation factor X (Bos taurus, UniProt P00743); assay: Inhibition of bovine factor 10a using Boc-Ile-Glu-Gly-Arg-AMC as substrate after 20 mins by fluorimetric analysis
[2] = biological target: T2, Suppressor of tumorigenicity 14 protein (Homo sapiens, UniProt Q9Y5Y6); assay: Inhibition of human matriptase using Boc-Gln-Ala-Arg-AMC as substrate after 20 mins by fluorimetric analysis
T2 sequence (Q9Y5Y6 whole entry): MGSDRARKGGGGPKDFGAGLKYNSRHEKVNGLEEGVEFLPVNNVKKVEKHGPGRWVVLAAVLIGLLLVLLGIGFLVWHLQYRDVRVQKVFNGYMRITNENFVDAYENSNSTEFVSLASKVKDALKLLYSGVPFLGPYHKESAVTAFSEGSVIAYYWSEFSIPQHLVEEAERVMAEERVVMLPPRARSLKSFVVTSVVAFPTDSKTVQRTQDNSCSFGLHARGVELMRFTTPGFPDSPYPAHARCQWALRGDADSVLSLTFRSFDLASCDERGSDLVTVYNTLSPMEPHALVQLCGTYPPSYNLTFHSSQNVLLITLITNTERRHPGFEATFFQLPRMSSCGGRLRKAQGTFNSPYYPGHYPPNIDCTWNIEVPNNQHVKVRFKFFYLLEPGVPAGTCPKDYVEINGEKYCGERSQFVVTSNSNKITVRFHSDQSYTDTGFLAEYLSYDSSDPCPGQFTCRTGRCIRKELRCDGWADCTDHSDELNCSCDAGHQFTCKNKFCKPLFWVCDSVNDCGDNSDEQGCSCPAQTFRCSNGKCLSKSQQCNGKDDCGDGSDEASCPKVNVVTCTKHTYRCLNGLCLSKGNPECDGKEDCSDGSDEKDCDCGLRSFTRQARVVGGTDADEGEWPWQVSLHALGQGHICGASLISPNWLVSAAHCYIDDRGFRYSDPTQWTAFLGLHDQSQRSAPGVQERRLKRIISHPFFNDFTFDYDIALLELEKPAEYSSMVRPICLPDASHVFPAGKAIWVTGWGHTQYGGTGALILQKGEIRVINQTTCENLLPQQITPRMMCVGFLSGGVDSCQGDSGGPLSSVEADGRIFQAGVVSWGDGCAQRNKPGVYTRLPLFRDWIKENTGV

Prothrombin = Prothrombin (Homo sapiens, UniProt P00734); assay: Inhibition of human thrombin using Cbz-Gly-Gly-Arg-AMC as substrate after 20 mins by fluorimetric analysis
[3] = biological target: T3, Transmembrane protease serine 6 (Homo sapiens, UniProt Q8IU80); assay: Inhibition of human matriptase-2 transfected in HEK cells using Boc-Gln-Ala-Arg-AMC as substrate after 20 mins by fluorimetric analysis; type: cell-based, HEK293
T3 sequence (Q8IU80 whole entry): T1 sequence (whole entry)

Trypsin = Trypsin (Homo sapiens, UniProt P07477+P07478+P35030); assay: Inhibition of human trypsin using Boc-Gln-Ala-Arg-AMC as substrate after 20 mins by fluorimetric analysis; type: protein assay
[4] = biological target: T1, Transmembrane protease serine 6 (Homo sapiens); assay: Inhibition of human matriptase-2 transfected in HEK cells assessed as residual activity at 5 uM using Boc-Gln-Ala-Arg-AMC as substrate after 20 mins by fluorimetric analysis; type: cell-based; settings: HEK293
[5] = Inhibition of bovine trypsin after 15 to 30 mins; design: species or system Bos taurus

Sequence of Coagulation factor X (P00743 41-180 limits assumed): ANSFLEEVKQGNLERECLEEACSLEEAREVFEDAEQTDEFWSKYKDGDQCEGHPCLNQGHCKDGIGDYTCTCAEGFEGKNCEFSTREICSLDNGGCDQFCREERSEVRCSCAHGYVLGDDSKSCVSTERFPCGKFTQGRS
Sequence of Coagulation factor X (P00743 234-492 limits assumed): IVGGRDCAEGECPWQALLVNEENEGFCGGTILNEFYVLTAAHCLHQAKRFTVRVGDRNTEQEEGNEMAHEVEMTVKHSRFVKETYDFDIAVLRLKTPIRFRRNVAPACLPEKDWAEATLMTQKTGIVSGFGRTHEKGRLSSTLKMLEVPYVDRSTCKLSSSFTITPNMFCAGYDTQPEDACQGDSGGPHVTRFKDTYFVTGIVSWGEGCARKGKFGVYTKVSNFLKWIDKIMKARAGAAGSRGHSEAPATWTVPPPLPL

In the case of `N=C(N)c1ccc(NCCCNc2ccc(C(=N)N)cc2)cc1`, the Activity [1] is reported as 55%.

For `N=C(N)c1ccc(N2CCN(c3ccc(C(=N)N)cc3)CC2)cc1`, the Ki (Coagulation factor X) was 20 µM, the Ki [2] was 0.719 µM and the Activity [1] was 5.3%. The Ki (Prothrombin) was 10.1 µM, the Ki [3] was 1.16 µM and the Ki (Trypsin) was 0.513 µM.

Work on `N=C(N)c1ccc(NCCCCCCCNc2ccc(C(=N)N)cc2)cc1` yielded a Ki (Coagulation factor X) of 0.391 µM, a Ki [2] of 0.558 µM and an Activity [1] of 16%. For the same molecule, the Ki (Prothrombin) was 0.499 µM, the Ki [3] was 3.68 µM and the Ki (Trypsin) was 0.244 µM.

Work on `N=C(N)c1ccc(OCc2cccc(COc3ccc(C(=N)N)cc3)c2)cc1` yielded an Activity [1] of 17%.

With `N=C(N)c1ccc(NC(=O)CCCCC(=O)Nc2cccc(C(=N)N)c2)cc1` the Activity [1] was 78%.

For `N=C(N)c1ccc(NC(=O)CCCCCCCC(=O)Nc2ccc(C(=N)N)cc2)cc1`, the Activity [1] was 49%.

`N=C(N)c1ccc(NC(=O)CCC(=O)Nc2ccc(C(=N)N)cc2)cc1` gave an Activity [1] of 40%.

For `N=C(N)c1ccc(NCCCCNc2ccc(C(=N)N)cc2)cc1`, the Activity [1] was 27%.

With `N=C(N)c1ccc(OCc2ccccc2COc2ccc(C(=N)N)cc2)cc1` the Ki (Coagulation factor X) was 13.7 µM, the Ki [2] was 2.28 µM and the Activity [1] was 19%. It also gave a Ki (Prothrombin) of 0.279 µM, a Ki [3] of 5.2 µM and a Ki (Trypsin) of 0.221 µM.

`N=C(N)c1ccc(NC(=O)CCCC(=O)Nc2ccc(C(=N)N)cc2)cc1` showed an Activity [1] of 68%.

For `N=C(N)c1ccc(NCCCCCCCCNc2ccc(C(=N)N)cc2)cc1`, the Ki (Coagulation factor X) was 1.29 µM, the Ki [2] was 0.526 µM and the Activity [1] was 8.6%. For the same molecule, the Ki (Prothrombin) was 0.317 µM, the Ki [3] was 1.64 µM and the Ki (Trypsin) was 0.192 µM.

With `N=C(N)c1ccc(NC(=O)c2cccc(C(=O)Nc3ccc(C(=N)N)cc3)c2)cc1` the Activity [1] was 32%.

`CN(CCCN(C)c1ccc(C(=N)N)cc1)c1ccc(C(=N)N)cc1` gave an Activity [1] of 23%.

For `N=C(N)c1ccc(NC(=O)CCCCCCCCCCC(=O)Nc2ccc(C(=N)N)cc2)cc1`, the Activity [1] was 49%.

Molecule `N=C(N)c1ccc(NC(=O)CCCCCC(=O)Nc2ccc(C(=N)N)cc2)cc1` has an Activity [1] of 63%.

In the case of `N=C(N)c1ccc(NC(=O)C(=O)Nc2ccc(C(=N)N)cc2)cc1`, the Ki (Coagulation factor X) is reported as 52.3 µM, the Ki [2] is reported as 0.492 µM and the Activity [1] is reported as 17%. It also gave a Ki (Prothrombin) of 15.8 µM, a Ki [3] of 6.23 µM and a Ki (Trypsin) of 1.42 µM.

For `N=C(N)c1ccc(NC(=O)CCCCC(=O)Nc2ccc(C(=N)N)cc2)cc1`, the Activity [1] was 57%.

With `N=C(N)c1ccc(NC(=O)c2ccc(C(=O)Nc3ccc(C(=N)N)cc3)cc2)cc1` the Activity [4] was 93% and the Activity [1] was greater than 50%.

`N=C(N)c1ccc(NCCNc2ccc(C(=N)N)cc2)cc1` showed an Activity [1] of 23%.

`CN(CCNc1ccc(C(=N)N)cc1)c1ccc(C(=N)N)cc1` gave an Activity [1] of 21%.

For `N=C(N)c1ccc(OCc2ccc(COc3ccc(C(=N)N)cc3)cc2)cc1`, the Ki (Coagulation factor X) was 0.327 µM, the Ki [2] was 0.816 µM and the Activity [1] was 16%. For the same molecule, the Ki [5] was 1.3 µM, the Ki (Prothrombin) was 1.16 µM and the Ki [3] was 5.7 µM. For the same molecule, the Ki (Trypsin) was 0.316 µM.

Molecule `N=C(N)c1ccc(NCCCCCCNc2ccc(C(=N)N)cc2)cc1` has an Activity [1] of 21%.

`N=C(NC1CC1)c1ccc(N2CCCN(c3ccc(C(=N)NC4CC4)cc3)CC2)cc1` showed an Activity [1] of 45%.

With `N=C(N)c1ccc(NC(=O)CCCCCCC(=O)Nc2ccc(C(=N)N)cc2)cc1` the Activity [1] was 62%.

With `N=C(N)c1ccc(N2CCCN(c3ccc(C(=N)N)cc3)CC2)cc1` the Ki (Coagulation factor X) was 7.83 µM, the Ki [2] was 0.397 µM and the Activity [1] was 15%. It also gave a Ki (Prothrombin) of 5.3 µM, a Ki [3] of 4.39 µM and a Ki (Trypsin) of 1.9 µM.

Molecule `N=C(N)c1ccc(COc2ccccc2OCc2ccc(C(=N)N)cc2)cc1` has an Activity [1] of 46%.

For `N=C(N)c1ccc(NC(=O)CCCCCCCCC(=O)Nc2ccc(C(=N)N)cc2)cc1`, the Activity [1] was 33%.

— ChEMBL document CHEMBL3826881, “Evaluation of bisbenzamidines as inhibitors for matriptase-2” (Bioorg Med Chem Lett, 2016)
